Source: patent US4609640A, “Preparation having excellent absorption property” (priority 1981, dated 1986)

Conditions: rat, in vivo
Procedure: Subsequently, these samples were administered to Wistar-strain rats as shown below and quantities of Cephalothin disappeared by absorption were measured.
In the experiment, Wistar-strain male rats, weighing 250 to 300 g, were narcotized with pentobarbital (50 mg/kg) and thereafter subjected to hypoabdominal incision for a first cannulation at a position about 1.5 cm from the anus and also another cannulation at a position 5 cm above the first cannulation. Subsequently, the rectum was internally washed with about 20 ml of isotonic sodium chloride solution kept at 38° C., and each sample was circulated at a flow rate of 2 ml/minute for 5 minutes to make the concentration in the system constant. Then, 6 ml of each sample was circulated at a flow rate of 2 ml/minute, and samples each of 0.05 ml were collected at intervals of 10 minutes. Each sample was diluted and the quantity of Cephalothin disappeared was determined by UV-spectrophotometer or high-speed liquid chromatography.

Substance: pectinic acid
- absorption of Cephalothin: improves remarkably absorption of Cephalothin
- absorption of Cephalothin under hyper tonic conditions: further improvement
